In patent US20160264602A1, “MANUFACTURING METHOD OF SILATRANE WITH THIOL GROUP AND PRESERVATION METHOD THEREOF” (NATIONAL CHUNG CHENG UNIVERSITY, priority 2015, published 2016):

Experiments:
[1] = Solubility of MPS in DMSO as time passes after manufacture; assay type: physicochemical
Protocol: No matter what kind of foregoing method, the product must be dissolved in organic solvent within 30 minutes. The solubility of MPS in aqueous phase or organic phase solvents will decrease as time passes.

[2] = Tests of preserving method: MPS dissolution and self-assembly of gold nanoparticles on MPS-modified glass substrate; assay type: physicochemical
Protocol: Performing the tests of three preserving methods that preserve MPS under atmospheric condition, under nitrogen and in organic solvent.
Most silane molecules in general are placed in a brown bottle and stored at 4° C. To investigate the preservation conditions for MPS, the efficiency of the self-assembly reaction of gold nanoparticles on the MPS-modified substrate is used as an indirect indicator. There are two advantages by this approach. First, gold nanoparticles have a characteristic surface plasmon resonance band which can be easily observed in a visible light spectrum and its absorbance is related to the surface coverage of the nanoparticles modified on the surface of the substrate. Second, the peak width of the surface plasmon resonance band is related to the uniformity of the gold nanoparticles distributed on the surface of the substrate. In the present study, gold nanoparticles with 13 nm in diameter are chosen, and the characteristic absorption peak is about 530 nm. After synthesis, purified and dried MPS are separately stored under atmospheric condition at 4° C. and in a brown bottle at room temperature under nitrogen.
If the purified MPS is dissolved in organic solvent and then preserved under atmospheric condition and room temperature without avoiding light, the activity of the sample can be preserved for at least 1 year and 6 months (ex. 1 year and 7 months) (referring to FIG. 3(a)).
The activity of the sample is tested with the self-assembly reaction of gold nanoparticles on the surface of the substrate treated by the sample and then observed by visible light spectroscopy and scanning electron microscopy. The results are shown in FIG. 4(a) and FIG. 4(b) wherein, all experiments are performed by immersing the substrate in a methanol solution of MPS and then modifying gold nanoparticles on the treated substrate for 30 minutes.

SCCC[Si]12OCCN(CCO1)CCO2 [MPS, (3-mercaptopropyl)silatrane]
solubility of MPS in dimethyl sulfoxide (DMSO) ([1]; after 1 week): about 40%
solubility of MPS in dimethyl sulfoxide (DMSO) ([1]; after 30 minutes): about 99%
solubility of MPS in dimethyl sulfoxide (DMSO) ([1]; after 1 day): about 90%
dissolution of preserved sample ([2]; purified and dried MPS in brown bottle at room temperature under nitrogen, after 5 weeks): cannot be dissolved
dissolution of preserved sample ([2]; purified and dried MPS under atmospheric condition at 4° C., after 3 weeks): cannot be dissolved in any solvent
time for which MPS can be preserved ([2]; traditional nitrogen preservation method under dark condition): about two
